Reference: PubChem BioAssay (NCI)
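How tested: cells in 96-well plates exposed to compound for 48 hours at five concentrations. GI50: concentration for 50% inhibition of growth. TGI is the concentration that stops growth completely.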

Legend:
Assay in all cases: NCI-60 cell line screen, 48 h
[1] = test system: A498 renal
[2] = test system: A549 NSCLC
[3] = test system: CCRF-CEM leukemia
[4] = test system: HCT-116 colon
[5] = test system: HOP-92 NSCLC
[6] = test system: MDA-MB-435
[7] = test system: OVCAR-3 ovarian
[8] = test system: SNB-19 CNS
[9] = test system: UACC-62 melanoma
[10] = test system: K-562 leukemia

Row | SMILES | GI50 [1] [µM] | TGI [1] [µM] | GI50 [2] [µM] | TGI [2] [µM] | GI50 [3] [µM] | TGI [3] [µM] | GI50 [4] [µM] | TGI [4] [µM] | GI50 [5] [µM] | TGI [5] [µM] | GI50 [6] [µM] | TGI [6] [µM] | GI50 [7] [µM] | TGI [7] [µM] | GI50 [8] [µM] | TGI [8] [µM] | GI50 [9] [µM] | TGI [9] [µM] | GI50 [10] [µM] | TGI [10] [µM]
1 | Cc1ccc(-c2nc(/C=N/Nc3cc(C)nc4ccc(Cl)cc34)c(C)o2)cc1 | 1.61 | 3.77 | 1.83 | 3.77 | 1.61 | 4.81 | 1.79 | 3.23 | 1.43 | 2.98 | 1.69 | 3.25 | 1.94 | 3.56 | 1.84 | 3.49 | 1.77 | 3.43 |  | 
2 | O=C(Nc1ccccc1I(=O)=O)C1CCCCC1 | > 100 | > 100 | > 100 | > 100 | > 100 | > 100 |  |  | > 100 | > 100 | > 100 | > 100 | > 100 | > 100 | > 100 | > 100 | > 100 | > 100 | 56.8 | > 100
3 | CN(C)CCCn1c(=O)c2ccccc2c2cnc3[nH]ccc3c21 | 1.03 | 2.37 |  |  | 1.53 | 8.44 | 0.486 | 10.3 | 1.8 | 8.16 | 1.76 | 6.66 | 2.4 | 6.35 | 2.19 | 10.6 | 1.59 | 2.97 | 2.03 | 11.5
4 | Cc1cc(C)c(C#N)c(Sc2nc(C)c([N+](=O)[O-])c(C)c2C#N)n1 | 13.1 | 27 |  |  |  |  | 1.94 | 4.18 | 2.68 | 7.88 | 2.1 | 4.75 | 2.01 | 3.88 | 15.1 | 88 | 2.96 | 11.5 | 2.9 | > 100
5 | C#C[C@@]1(O)[C@@H](CO)O[C@@H](n2cc(I)c3c(N)ncnc32)[C@@H]1O | 0.309 | 1.43 | 0.298 | > 100 | 0.271 | > 100 | 0.0434 | > 100 | 0.0736 | 2.22 | 0.473 | 12.8 |  |  | 0.0996 | > 50 | 0.615 | 2.78 | 0.064 | > 100
6 | O=C(NNc1ccc(Cl)cc1)C1CCC(CNS(=O)(=O)c2ccccc2Cl)CC1 (centres undefined) | 31.3 | 74.9 | 8.99 | > 100 | 39.2 | > 100 |  |  | 17.3 | > 100 | 4.77 | 24.1 | 8.68 | 39.8 |  |  | 2.81 | 9.64 | 1.96 | 5.73
7 | CN1Cc2ccccc2/C=C\c2ccccc21 |  | > 100 |  | > 100 |  | > 100 |  | > 100 |  | 98.7 |  | > 100 |  | > 100 |  | > 100 |  | > 100 |  | 
8 | O=C1CSC(c2ccccc2Cl)N1c1nnc(Cn2cnnc2)o1 (centres undefined) | 12.3 | 52.7 | 18 | > 100 | 5.83 | > 100 | 4.09 | 18.4 | 19.3 | 79.1 | 2.2 | 5.96 | 3.4 | 10.7 |  |  | 7.55 | 27.5 | 3.33 | 16.2
9 | O=[N+]([O-])c1ccc(Cl)c(CNc2ncnc3c2ncn3C2CCCCO2)c1 (centres undefined) |  | 43.9 |  | > 100 |  |  |  | > 100 |  | > 100 |  | 30.3 |  | > 100 |  | > 100 |  | > 100 |  | > 100
10 | COc1cc(OC)cc(C2C3=C(COC3=O)Nc3cc(OC)ccc32)c1 (centres undefined) | < 0.01 | < 0.0106 | < 0.01 | 27.7 | < 0.01 | > 100 | < 0.01 | 0.413 |  |  | < 0.01 | < 0.01 | < 0.01 | < 0.01 | 0.0178 | > 100 | < 0.01 | > 81.2 | < 0.01 | 13.4
11 | O=C(CN(/C=C/C(=O)C(F)(F)F)c1ccc(Cl)cc1)c1ccc(Cl)c(Cl)c1 | 3.65 | 16.7 | 7.09 | 21.5 | 3.41 | 11 | 3.54 | 13.2 | 3.21 | 14.5 | 4.03 | 13.5 | 3.23 | 11.3 | 15.4 | 33.6 | 3.98 | 16.1 |  | 
12 | CC(=O)OC12C=C(C)C(C(C)C1)C1C(=O)N(CCN3CCCCC3)C(=O)C12 (centres undefined) | > 50 | > 50 | > 50 | > 50 | > 50 | > 50 | > 50 | > 50 | > 50 | > 50 | > 50 | > 50 |  |  | > 50 | > 50 | > 50 | > 50 | > 50 | > 50
